The text below walks through data of patent publication US20090111795A1, “Multimers of Heterocyclic Compounds and Their Use” (priority 2005, published 2009).

What is called melting point is the temperature, or range, at which the solid turns liquid.

SMILES strings stand for the structures.

As to `CCOC(=O)C1=C(C)N(c2cccc(C(F)(F)F)c2)C(=O)N(CC(=O)NCC[N+](C)(C)CCNC(=O)CN2C(=O)N(c3cccc(C(F)(F)F)c3)C(C)=C(C(=O)OCC)[C@H]2c2ccc(C#N)cc2)[C@@H]1c1ccc(C#N)cc1.O=C([O-])CCC(=O)O`, the melting point lay in the range of 138 to 143 °C.
